The values that follow are results of earlier work, collected in US20160095850A1, “METHODS AND COMPOSITIONS FOR TREATMENT OF HIV INFECTION” (COOPER HUMAN SYSTEMS LLC, priority 2013, published 2016).

For data set [1] the following is noted: human, in vivo.
Data set [2] concerns HDAC activity in HeLa extracts. The note with it: read-out: IC50 for inhibition of HDAC activity.
Another data set has as its system A549 cells. Conditions: read-out: EC50, dose-dependent increase in acetylated histone levels.
Another data set has as its target HDAC3 (Homo sapiens, UniProt O15379).
A further data set concerns the target T1, HDAC8 (Homo sapiens, UniProt Q9BY41).
T1 sequence (Q9BY41 1-377): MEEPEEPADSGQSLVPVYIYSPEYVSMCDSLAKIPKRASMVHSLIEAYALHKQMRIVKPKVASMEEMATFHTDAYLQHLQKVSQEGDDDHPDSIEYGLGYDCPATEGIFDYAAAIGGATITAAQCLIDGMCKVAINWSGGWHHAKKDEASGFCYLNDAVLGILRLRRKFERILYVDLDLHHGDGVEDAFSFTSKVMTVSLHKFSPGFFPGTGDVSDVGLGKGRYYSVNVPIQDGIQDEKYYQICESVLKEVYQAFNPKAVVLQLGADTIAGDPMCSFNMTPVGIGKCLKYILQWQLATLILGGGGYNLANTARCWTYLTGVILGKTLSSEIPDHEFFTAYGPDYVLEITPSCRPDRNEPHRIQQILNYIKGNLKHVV

Data set [3] deals with HIV-RNA in resting CD4 T cells. The note with it: single dose of 400 mg.
Data set [4] concerns HIV RNA expression in CD4 T cells.

Sequence of HDAC3 (O15379 whole entry): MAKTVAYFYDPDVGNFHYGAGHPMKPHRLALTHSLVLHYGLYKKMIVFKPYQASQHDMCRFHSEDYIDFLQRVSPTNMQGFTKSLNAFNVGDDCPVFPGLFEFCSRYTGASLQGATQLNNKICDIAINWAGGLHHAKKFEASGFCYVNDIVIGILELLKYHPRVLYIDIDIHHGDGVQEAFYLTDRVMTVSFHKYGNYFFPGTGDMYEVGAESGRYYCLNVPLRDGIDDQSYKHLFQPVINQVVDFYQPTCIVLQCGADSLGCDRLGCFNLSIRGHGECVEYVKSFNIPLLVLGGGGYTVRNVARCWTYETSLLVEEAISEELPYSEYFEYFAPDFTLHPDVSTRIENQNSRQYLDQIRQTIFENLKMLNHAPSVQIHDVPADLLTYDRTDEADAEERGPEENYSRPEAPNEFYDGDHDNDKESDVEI
Sequence of HDAC3 (Q9Y618 395-489 partner limits assumed): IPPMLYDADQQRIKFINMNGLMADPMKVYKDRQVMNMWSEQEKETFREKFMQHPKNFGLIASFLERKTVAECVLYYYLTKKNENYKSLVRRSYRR

Turning to `NCCCCN(Cc1nc2ccccc2[nH]1)[C@H]1CCCc2cccnc21` [AMD070], in [1], the “median estimated terminal half-life” value was 7.6 to 12.6 h.
Regarding `Nc1ccccc1NC(=O)CCCCCCC(=O)Nc1ccccc1` [BML-210], the IC50 in data set [2] was 80 µM. For the same compound, in the data set with A549 cells, the EC50 was 36 µM.
As for `Cc1cc(Cl)ccc1OCCCC(=O)NO` [Droxinostat], the IC50 was 16.9 µM on HDAC3, more than 20 µM with other HDAC members and 1.46 µM on HDAC8.
Consider `O=C(CCCCCCC(=O)NO)NO` [SBHA, Suberohydroxamic acid], for which, on HDAC3, the half-maximal inhibitory concentration (IC50) is 0.3 µM.
For the compound `O=C(CCCCCCC(=O)Nc1ccccc1)NO` [Vorinostat, suberoylanilide hydroxamic acid], the “evaluated subjects with significantly increased expression of HIV-RNA in isolated resting CD4 T cells” value in data set [3] was 8 of 8. Besides, in data set [4], the “course of the induction of HIV RNA” value is “transient and diminished after 24 hours”.
Take “IL-15: cytokine promoting activation and maintenance of NK and CD8 T effector memory cells”: the “expansion of CD8 T(EM) cells in the peripheral blood” value in the data set on CD8 T(EM) cells (20 μg/kg/d by continuous intravenous infusion for 10 days) is listed as 100 fold. Moreover, the “expansion of CD8 T(EM) cells” value in the data set on CD8 T(EM) cells (20-40 μg/kg/d by subcutaneous injection) was 10 fold.
